# Laboratory results published in patent US20060183901A1, “Crystalline form of an indazole-carboxamide compound” (THERAVANCE, INC., priority 2005, published 2006).
# Legend:
# Assay type in all cases: physicochemical
# [1] = Differential scanning calorimetry (DSC)
# Description: Differential scanning calorimetry (DSC) was performed using a TA Instruments
# Model Q-100 module. Data were collected and analyzed using TA Instruments Thermal Advantage for Q Series™ software. A sample of about 1-2 mg was accurately weighed into an aluminum pan with lid. The sample was evaluated using a linear heating ramp of 5° C./min from ambient temperature to at least 225° C. The DSC cell was purged with dry nitrogen during use. Representative DSC traces for samples of the crystalline dihydrochloride and dihydrobromide salts of the invention are shown in FIGS. 2 and 4, respectively.
# (§1) The crystalline acid salts of the compound of formula I of Comparative Examples 1-4 were analyzed by PXRD, DSC, and TGA. The temperatures at which endothermic heat flow was observed by DSC, and weight loss was observed by TGA, along with confirmation of crystallinity by PXRD are summarized in Table II where the stoichiometry is indicated by the number of molar equivalents of acid used to prepare the acid salt.
# [2] = Thermogravimetric analysis (TGA)
# Description: Thermogravimetric analysis (TGA) was performed using a TA Instruments Model Q-500 module. Data were collected and analyzed using TA Instruments Thermal Advantage for Q Series™ software. […] The balance and furnace chambers were purged with nitrogen during use. Representative TGA traces for samples of crystalline dihydrochloride and dihydrobromide salts of the invention are also shown in FIGS. 2 and 4, respectively.
# as §1
# [3] = Dynamic moisture sorption assessment; conditions: humidity range of 40% to 60% relative humidity
# Description: Dynamic moisture sorption (DMS) assessment was performed at 25° C. using a VTI atmospheric microbalance, SGA-100 system (VTI Corp., Hialeah, Fla. 33016). A sample size of approximately 5-10 mg was used and the humidity was set at the ambient value at the start of the analysis. A typical DMS analysis consisted of three scans: ambient to 2% relative humidity (RH), 2% RH to 90% RH, 90% RH to 5% RH at a scan rate of 5% RH/step. The mass was measured every two minutes and the RH was changed to the next value (+5% RH) when the mass of the sample was stable to within 0.01% for 5 consecutive points. Representative DMS traces for samples of crystalline dihydrochloride and dihydrobromide salts of the invention are shown in FIGS. 5 and 6, respectively.
# [4] = Solid state stability assessment (HPLC, Karl Fischer)
# Description: Samples of the dihydrochloride salt of the invention, about 100 mg each, were stored in multiple 4 mL glass vials with Teflon lined lids at 25° C. and 60% relative humidity (RH) and at 40° C. and 75% RH in open and closed containers. At specific intervals, the contents of a representative vial was removed and analyzed by the Karl Fisher method for water content and by the following HPLC method: • Column: Agilent Zorbax Bonus RP, 4.6×250 mm, 5 μm (Agilent Part No. 880668-901); • Mobile Phase A: 88% water, 2% acetonitrile, 10% 100 mM potassium phosphate; • Mobile Phase B: 20% water, 70% acetonitrile; 10% 100 mM potassium phosphate; • Flow rate: 1.5 mL/min; • Injection Volume: 10 μL • Detector: 214 nm; • Gradient—Time in minutes (% Mobile Phase B): 0.0 (2); 1.0 (2); 9.0 (22); • 19.0 (28); 33.0 (63); 36.3 (100); 37.0 (2); and 42.0 (2).
# Samples were prepared as 0.25 to 0.75 mg/mL solutions in 5% acetonitrile, 85% water, 10% 100 mM potassium phosphate for injection onto the HPLC.
# The initial water content was 1.2%, as determined by Karl Fischer titration using a Brinkman Metrohm (Westbury, N.Y.) Karl Fischer Model 831 coulometer. After 6 months the water content of the samples stored in open containers at 25° C./60% RH and at 40° C./75% RH was 2.9% and 5.3%, respectively, an increase of 1.7% and 4.1%, respectively.
# [5] = Storage stability of the crystalline hydrate at 40° C. and 75% RH
# Description: A sample of the dihydrochloride salt of the invention, about 50 mg, was stored in a 20 mL glass vial at 40° C. and 75% relative humidity. At specific intervals, aliquots of sample were dispensed and analyzed by PXRD and by DSC and TGA. The low temperature (i.e. below 150° C.) features in the DSC and TGA traces are characteristic of a hydrate. The hydrate form is observed to be stable when stored at 40° C. and 75% RH.
# [6] = 6 months, open containers, 25° C./60% RH
# [7] = 6 months, open containers, 40° C./75% RH
# [8] = six months at 25° C. and 60% relative humidity
compound,measurement,setting,value
CC(=O)O [acetate],DSC endotherm (temperature of endothermic heat flow),[1],˜100 °C
same,TGA: temperature of weight loss,[2],˜100 °C
"Br.Br.CC(=O)N1CCN(CCN2[C@@H]3CC[C@H]2CC(NC(=O)c2nn(C(C)C)c4ccccc24)C3)CC1 (stereo partly drawn) [dihydrobromide salt, 1-isopropyl-1H-indazole-3-carboxylic Acid {(1S,3R,5R)-8-[2-(4-acetylpiperazin-1-yl)ethyl]-8-azabicyclo[3.2.1]oct-3-yl}amide dihydrobromide]",DSC: temperature below which no (significant) thermal events,[1],about 230 °C
same,TGA: temperature below which no (significant) thermal event,[2],about 250 °C
same,weight gain (hygroscopicity),[3],less than 1%
"CC(=O)N1CCN(CCN2[C@@H]3CC[C@H]2C[C@@H](NC(=O)c2nn(C(C)C)c4ccccc24)C3)CC1.Cl.Cl [dihydrochloride salt, 1-isopropyl-1H-indazole-3-carboxylic Acid {(1S,3R,5R)-8-[2-(4-acetylpiperazin-1-yl)ethyl]-8-azabicyclo[3.2.1]oct-3-yl}amide dihydrochloride]",change in potency,"[4]; 6 months of storage, all conditions (25° C./60% RH, 40° C./75% RH, open and closed)",no detectable change in potency
same,increase of water content,[4]; [6],1.7%
same,water content (Karl Fischer),[4]; [6],2.9%
same,increase of water content,[4]; [7],4.1%
same,water content (Karl Fischer),[4]; [7],5.3%
same,initial potency compared with the freebase (HPLC area percentage),[4]; initial,82.4%
same,water content (Karl Fischer),[4]; initial,1.2%
same,chemical degradation by HPLC,[4]; [8],no chemical degradation
same,gain in moisture content,[4]; [8],< 2%
same,DSC: temperature below which no (significant) thermal events,[1],about 200 °C
same,simultaneous melting and decomposition temperature (DSC and TGA),[1],180-200 °C
same,TGA: temperature below which no (significant) thermal event,[2],about 180 °C
same,weight gain (hygroscopicity),[3],less than 1%
"CC(=O)N1CCN(CCN2[C@@H]3CC[C@H]2CC(NC(=O)c2nn(C(C)C)c4ccccc24)C3)CC1.O=C(O)/C=C/C(=O)O (stereo partly drawn) [fumarate, fumaric Acid Salt of 1-isopropyl-1H-indazole-3-carboxylic acid {(1S,3R,5R)-8-[2-(4-acetylpiperazin-1-yl)ethyl]-8-azabicyclo[3.2.1]oct-3-yl}amide]",DSC endotherm (temperature of endothermic heat flow),[1],<150 °C
same,TGA: temperature of weight loss,[2],loss ˜100 °C
same,TGA: weight loss,[2],5-6% wt.
"CC(=O)N1CCN(CCN2[C@@H]3CC[C@H]2CC(NC(=O)c2nn(C(C)C)c4ccccc24)C3)CC1.Cl.Cl.O (stereo partly drawn) [hydrate, Crystalline hydrate of 1-isopropyl-1H-indazole-3-carboxylic Acid {(1S,3R,5R)-8-[2-(4-acetylpiperazin-1-yl)ethyl]-8-azabicyclo[3.2.1]oct-3-yl}amide dihydrochloride]",change in PXRD peak positions,[5]; 8 weeks vs 12 weeks at 40° C./75% RH,no significant change in PXRD peak positions
same,stability of hydrate form on storage,[5]; 40° C. and 75% RH,stable
O=[N+]([O-])O [nitrate],DSC endotherm (temperature of endothermic heat flow),[1],<100 °C
same,TGA: temperature of weight loss,[2],loss ˜150 °C
same,TGA: weight loss,[2],5-6% wt.
"CC(=O)N1CCN(CCN2[C@@H]3CC[C@H]2C[C@@H](NC(=O)c2nn(C(C)C)c4ccccc24)C3)CC1.O=P(O)(O)O [phosphate (1), Phosphoric Acid Salt of 1-isopropyl-1H-indazole-3-carboxylic Acid {(1S,3R,5R)-8-[2-(4-acetylpiperazin-1-yl)ethyl]-8-azabicyclo[3.2.1]oct-3-yl}amide]",TGA: temperature of weight loss,[2],loss <100 °C
same,TGA: weight loss,[2],3-5% wt.
"CC(=O)N1CCN(CCN2[C@@H]3CC[C@H]2CC(NC(=O)c2nn(C(C)C)c4ccccc24)C3)CC1.Cc1ccc(S(=O)(=O)O)cc1 (stereo partly drawn) [tosylate, p-toluene Sulfonic Acid Salt of 1-isopropyl-1H-indazole-3-carboxylic acid {(1S,3R,5R)-8-[2-(4-acetylpiperazin-1-yl)ethyl]-8-azabicyclo[3.2.1]oct-3-yl}amide]",DSC endotherm (temperature of endothermic heat flow),[1],>200 °C
benzoate,DSC endotherm (temperature of endothermic heat flow),[1],<150 °C
same,TGA: temperature of weight loss,[2],˜100 °C
